The text below walks through data of patent publication US9447136B2, “Semisynthetic derivatives of Nystatin A1” (BLIRT S.A., priority 2012, dated 2016).

In data set [1] the test system is Candida glabrata DSM 11226. Description: Antifungal activity in vitro, serial dilution in RPMI 1640. Type of data set: cell-based. Conditions: Table 2A; RPMI 1640, pH 7.0. The protocol: (§1) For the determination of antifungal activity in vitro we used method of serial dilution in buffered medium RPMI 1640, pH 7.0, in a 96-wells microplates, according to the standard procedure (National Committee for Clinical Laboratory Standards. Reference method for broth dilution antifungal susceptibility testing of yeast, approved standard, 2nd ed. M27-A2 vol. 22 Wayne, Pa., 2002). The optical density of cells suspension was measured using a microplates reader (Victor^3, Perkin-Elmer) at the wavelength λ=531 nm (A531). On the basis of obtained results the diagrams of relation between A531 values and concentration of examined compound were made. From these graphs, the IC50 values were read, which were the interpolated concentrations of a tested compound, at which the A531 value was exactly 50% of the A531 value for the control sample. Moreover, MIC values, that are the lowest concentration of tested compound at which the A531 value were at most 20% of the A531 value measured for the control sample.

The next data set relates to Candida krusei DSM 6128. The data set is described as above. Conditions: Table 2A; RPMI 1640, pH 7.0. Type of data set: cell-based. As to the method: as §1
For data set [2], the system named is Saccharomyces cerevisiae ATCC 9763. Described as above. Type of data set: cell-based. Conditions: Table 2A; RPMI 1640, pH 7.0; A531 at most 20% of control. As to the method:
as §1

The subject of data set [3] is Candida albicans ATCC 10231. Described as above. The format is cell-based. Conditions: Table 2A, RPMI 1640, pH 7.0; for Antifungal activity Candida albicans ATCC 10231 IC50: A531 50% of control; for Antifungal activity Candida albicans ATCC 10231 MIC: A531 at most 20% of control. As to the method: as §1
For data set [4], the system named is Candida tropicalis KKP 334. The data set is described as above. The format is cell-based. The following applies: Table 2A; RPMI 1640, pH 7.0. As to the method:
as §1

A further data set has as its system Human erythrocytes. In words: Hemotoxicity (hemolytic activity). The protocol:
The hemotoxicity determination were carried out by the serial dilutions method, according to the procedure described earlier (Ślisz, M., et al., E., J Antibiot 57: 669-678 (2004)). Human erythrocytes were suspensed in the solution of saline to obtain a cell density of suspension 2×10^7/ml. Suitable amounts of diluted solutions of compounds were added to the cell suspension in tubes and were incubated at 37° C. for 30 minutes and then centrifuged (1700×g, 10 min, 4° C.). The concentration of hemoglobin in supernatant after centrifugation of erythrocytes suspension were determined by measuring the absorbance at wavelength λ=540 nm (A540). The maximum level of hemolysis was obtained after incubation of cells suspension in the presence of 0.1% Tritone X-100 (control sample). […] From these graphs, the EH50 values were read which are the interpolated concentrations of compound, for which the A540 value is exactly 50% of the A540 value measured for the control sample.

Consider `CC1OC(O[C@H]2/C=C/C=C/C=C/C=C/CC/C=C/C=C/[C@H](C)[C@@H](O)[C@@H](C)[C@H](C)OC(=O)C[C@H](O)C[C@H](O)C[C@H](O)CC[C@@H](O)[C@H](O)CC3(O)C[C@H](O)[C@@H](C(=O)O)[C@H](C2)O3)C(O)C(NC2CC(=O)N(Cc3ccccc3)C2=O)C1O` (stereo partly drawn) [Compound N1, N—(N′-benzylsuccinimidyl)nystatin A1], for which the “Antifungal activity Candida glabrata DSM 11226 MIC” value in data set [1] was found to be 16 µg/mL. The “Antifungal activity Candida krusei DSM 6128 MIC” value in the data set on Candida krusei DSM 6128 is 32 µg/mL. Moreover, in data set [2], the “Antifungal activity Saccharomyces cerevisiae ATCC 9763 MIC” value worked out at 8 µg/mL. Besides, in data set [3], the “Antifungal activity Candida albicans ATCC 10231 IC50” value was 5.36 µg/mL and the “Antifungal activity Candida albicans ATCC 10231 MIC” value is 8 µg/mL. Further, the “Antifungal activity Candida tropicalis KKP 334 MIC” value in data set [4] was 8 µg/mL.

For `CC1OC(O[C@H]2/C=C/C=C/C=C/C=C/CC/C=C/C=C/[C@H](C)[C@@H](O)[C@@H](C)[C@H](C)OC(=O)C[C@H](O)C[C@H](O)C[C@H](O)CC[C@@H](O)[C@H](O)CC3(O)C[C@H](O)[C@@H](C(=O)O)[C@H](C2)O3)C(O)C(NC2CC(=O)N(c3ccc(Br)cc3)C2=O)C1O` (stereo partly drawn) [Compound N2, N—(N′-4-bromophenylsuccinimidyl)nystatin A1], the “Antifungal activity Candida glabrata DSM 11226 MIC” value in data set [1] came to 16 µg/mL. Further, in the data set with Candida krusei DSM 6128, the “Antifungal activity Candida krusei DSM 6128 MIC” value is 16 µg/mL. Besides, the “Antifungal activity Saccharomyces cerevisiae ATCC 9763 MIC” value in data set [2] is 8 µg/mL. In data set [3], the “Antifungal activity Candida albicans ATCC 10231 IC50” value was 4.99 µg/mL and the “Antifungal activity Candida albicans ATCC 10231 MIC” value worked out at 8 µg/mL. Also, the “Antifungal activity Candida tropicalis KKP 334 MIC” value in data set [4] turned out to be 8 µg/mL.

`Cc1cc(C)c(N2C(=O)CC(N[C@@H]3[C@H](O)[C@H](O[C@H]4/C=C/C=C/C=C/C=C/CC/C=C/C=C/[C@H](C)[C@@H](O)[C@@H](C)[C@H](C)OC(=O)C[C@H](O)C[C@H](O)CC[C@@H](O)[C@H](O)C[C@H](O)C[C@]5(O)C[C@H](O)[C@@H](C(=O)O)[C@H](C4)O5)O[C@H](C)[C@H]3O)C2=O)c(C)c1` (stereo partly drawn) [Compound N3, N—(N′-2,4,6-trimethylphenylsuccinimidyl)nystatin A1]: in data set [1], the “Antifungal activity Candida glabrata DSM 11226 MIC” value was 32 µg/mL. The “Antifungal activity Saccharomyces cerevisiae ATCC 9763 MIC” value in data set [2] was 8 µg/mL. Also, in data set [3], the “Antifungal activity Candida albicans ATCC 10231 IC50” value came to 11.76 µg/mL and the “Antifungal activity Candida albicans ATCC 10231 MIC” value came to 16 µg/mL. In addition, the “Antifungal activity Candida tropicalis KKP 334 MIC” value in data set [4] was found to be 16 µg/mL.

As to `Cc1cccc(C)c1N1C(=O)CC(NC2C(O)C(C)OC(O[C@H]3/C=C/C=C/C=C/C=C/CC/C=C/C=C/[C@H](C)[C@@H](O)[C@@H](C)[C@H](C)OC(=O)C[C@H](O)C[C@H](O)C[C@H](O)CC[C@@H](O)[C@H](O)CC4(O)C[C@H](O)[C@@H](C(=O)O)[C@H](C3)O4)C2O)C1=O` (stereo partly drawn) [Compound N4, N—(N′-2,6-dimethyl-phenylsuccinimidyl)nystatin A1], the “Antifungal activity Candida glabrata DSM 11226 MIC” value in data set [1] was 16 µg/mL. Also, the “Antifungal activity Candida krusei DSM 6128 MIC” value in the data set on Candida krusei DSM 6128 came out at 16 µg/mL. Besides, in data set [2], the “Antifungal activity Saccharomyces cerevisiae ATCC 9763 MIC” value came out at 8 µg/mL. In addition, in data set [3], the “Antifungal activity Candida albicans ATCC 10231 IC50” value came out at 6.32 µg/mL and the “Antifungal activity Candida albicans ATCC 10231 MIC” value worked out at 8 µg/mL. In addition, the “Antifungal activity Candida tropicalis KKP 334 MIC” value in data set [4] worked out at 8 µg/mL.

Regarding `CCCN(CC1(O)OCC(O)C(O)C1O)C1C(O)C(C)OC(OC2C=CC=CC=CC=CCCC=CC=CC(C)C(O)C(C)C(C)OC(=O)CC(O)CC(O)CC(O)CCC(O)C(O)CC3(O)CC(O)C(C(=O)O)C(C2)O3)C1O` (stereo not drawn) [Compound N27, N-fructosyl-N-n-propylnystatin A1], in the data set with Human erythrocytes, the “% of hemolysis at the concentration 300 μg ml^−1” value is listed as 7.34% and the EH10 is above 300 µg/mL.

On to `CC1OC(O[C@H]2/C=C/C=C/C=C/C=C/CC/C=C/C=C/[C@H](C)[C@@H](O)[C@@H](C)[C@H](C)OC(=O)C[C@H](O)C[C@H](O)C[C@H](O)CC[C@@H](O)[C@H](O)CC3(O)C[C@H](O)[C@@H](C(=O)O)[C@H](C2)O3)C(O)C(NC(=O)[C@@H](N)CCC(=O)OC(C)(C)C)C1O` (stereo partly drawn) [Compound N35, N-L-(O-tert-butyl)glutamylnystatin A1], for which the “Antifungal activity Candida glabrata DSM 11226 MIC” value in data set [1] came out at 16 µg/mL. Besides, the “Antifungal activity Candida krusei DSM 6128 MIC” value in the data set on Candida krusei DSM 6128 turned out to be 16 µg/mL. In data set [2], the “Antifungal activity Saccharomyces cerevisiae ATCC 9763 MIC” value stood at 8 µg/mL. Besides, in data set [3], the “Antifungal activity Candida albicans ATCC 10231 IC50” value stood at 6.36 µg/mL and the “Antifungal activity Candida albicans ATCC 10231 MIC” value turned out to be 8 µg/mL. Moreover, the “Antifungal activity Candida tropicalis KKP 334 MIC” value in data set [4] amounted to 16 µg/mL.

For `CC1C=CC=CCCC=CC=CC=CC=CC(OC2OC(C)C(O)C(NC(=O)C(N)COC(C)(C)C)C2O)CC2OC(O)(CC(O)CC(O)C(O)CCC(O)CC(O)CC(=O)OC(C)C(C)C1O)CC(O)C2C(=O)O` [Compound N36, N-L-(O-tert-butyl)serylnystatin A1], in the data set on Human erythrocytes, the “% of hemolysis at the concentration 300 μg ml^−1” value came out at 8.24% and the EH10 is above 300 µg/mL.

`C[C@@H]1[C@H](O)[C@@H](C)/C=C/C=C/CC/C=C/C=C/C=C/C=C/[C@H](O[C@@H]2O[C@H](C)[C@@H](O)[C@H](NC(=O)[C@H](N)COC(C)(C)C)[C@@H]2O)C[C@@H]2O[C@](O)(C[C@@H](O)C[C@@H](O)[C@H](O)CC[C@@H](O)C[C@@H](O)CC(=O)O[C@H]1C)C[C@H](O)[C@H]2C(=O)O` [Compound N38, N-D-(O-tert-butyl)serylnystatin A1]: the “Antifungal activity Candida glabrata DSM 11226 MIC” value in data set [1] came out at 16 µg/mL. In the data set on Candida krusei DSM 6128, the “Antifungal activity Candida krusei DSM 6128 MIC” value turned out to be 16 µg/mL. The “Antifungal activity Saccharomyces cerevisiae ATCC 9763 MIC” value in data set [2] came to 8 µg/mL. Besides, in data set [3], the “Antifungal activity Candida albicans ATCC 10231 IC50” value worked out at 5.95 µg/mL and the “Antifungal activity Candida albicans ATCC 10231 MIC” value was found to be 8 µg/mL. For the same compound, the “Antifungal activity Candida tropicalis KKP 334 MIC” value in data set [4] is 8 µg/mL.

On to `CC1OC(O[C@H]2/C=C/C=C/C=C/C=C/CC/C=C/C=C/[C@H](C)[C@@H](O)[C@@H](C)[C@H](C)OC(=O)C[C@H](O)C[C@H](O)C[C@H](O)CC[C@@H](O)[C@H](O)CC3(O)C[C@H](O)[C@@H](C(=O)O)[C@H](C2)O3)C(O)C(NC(=O)[C@H](N)Cc2cccnc2)C1O` (stereo partly drawn) [Compound N42, N-D-β-(pyridin-3-yl)alanylnystatin A1], for which, in data set [1], the “Antifungal activity Candida glabrata DSM 11226 MIC” value turned out to be 32 µg/mL. Also, the “Antifungal activity Candida krusei DSM 6128 MIC” value in the data set on Candida krusei DSM 6128 stood at 32 µg/mL. In addition, in data set [2], the “Antifungal activity Saccharomyces cerevisiae ATCC 9763 MIC” value is 8 µg/mL. Moreover, in data set [3], the “Antifungal activity Candida albicans ATCC 10231 IC50” value amounted to 10.54 µg/mL and the “Antifungal activity Candida albicans ATCC 10231 MIC” value was 16 µg/mL. The “Antifungal activity Candida tropicalis KKP 334 MIC” value in data set [4] worked out at 16 µg/mL.

As to “N—(N′-cyclohexylsuccinimidyl)nystatin A1 [Compound N5]”, the “Antifungal activity Candida glabrata DSM 11226 MIC” value in data set [1] worked out at 16 µg/mL. Further, the “Antifungal activity Candida krusei DSM 6128 MIC” value with Candida krusei DSM 6128 stood at 16 µg/mL. The “Antifungal activity Saccharomyces cerevisiae ATCC 9763 MIC” value in data set [2] is 8 µg/mL. Also, in data set [3], the “Antifungal activity Candida albicans ATCC 10231 IC50” value was 5.77 µg/mL and the “Antifungal activity Candida albicans ATCC 10231 MIC” value came to 8 µg/mL. The “Antifungal activity Candida tropicalis KKP 334 MIC” value in data set [4] came to 8 µg/mL.
